Key:
MCF-7 cells = assay: Cell cycle analysis by flow cytometry; type: cell-based, human; details: 10 μM, 48 h
Experimental: Given that microtubule polymerization inhibitors are known to disrupt mitosis and induce cell cycle arrest, we evaluated the effect of compound 3g on cell cycle progression in MCF-7 cells by flow cytometry.
MCF-7 cells were seeded in 6-well plates and cultured overnight. Cells were then treated with compound 3g at concentrations of 0.1, 1, and 10 μM for 48 h. After treatment, cells were collected and fixed in 70% ethanol at 4 °C overnight. The fixed cells were washed and resuspended in staining buffer containing RNase A and propidium iodide (PI), followed by incubation in the dark at 37 °C for 30 min. DNA content was subsequently analyzed by flow cytometry.
Figure 6 Cell cycle arrest induced by compound 3g. (A) Compound 3g induced G2/M arrest in MCF-7 cells. MCF-7 cells were incubated with varying concentrations of compound 3g (0.1, 1, and 10 μM) for 48 h. The percentages of cells in different phases of the cell cycle were analyzed by FlowJo 10.8.1. (B) Histograms display the percentage of cell cycle distribution after treatment with compound 3g. Data are expressed as mean ± standard deviation from three independent experiments. Statistical significance was determined by one-way ANOVA followed by Tukey’s post hoc test.

B16-F10 cells = assay: CCK-8 antiproliferative assay, B16-F10; type: cell-based, murine; details: Mus musculus, cell viability (CCK-8), 48 h
Experimental: To evaluate the anticancer potential of the synthesized compounds, a panel of six human and murine cancer cell lines representing different tissue origins was selected, including MCF-7 (human breast adenocarcinoma), MDA-MB-231 (human triple-negative breast cancer), A549 (human non-small cell lung cancer), HeLa (human cervical cancer), A375 (human melanoma), and B16-F10 (murine melanoma) (Table 2). […] DMSO was used as the vehicle control, and all experiments were performed in triplicate to ensure reproducibility.
Human breast cancer cells (MCF-7), human lung cancer cells (A549), human cervical cancer cells (HeLa), human triple-negative breast cancer cells (MDA-MB-231), and human malignant melanoma cells (A375) were cultured in DMEM. Mouse melanoma cells (B16F10) were maintained in RPMI-1640 medium. All media were supplemented with 10% fetal bovine serum and 1% penicillin-streptomycin (Life Technologies, Carlsbad, CA, USA) and maintained at 37 °C in a humidified atmosphere with 5% CO2.
The cytotoxicity of the test compounds was evaluated against MCF-7, A549, HeLa, MDA-MB-231, A375, and B16F10 using the CCK-8 assay. Cells were seeded into 96-well plates at a density of 5000 cells/well. After removing the medium, 100 μL of medium with 0.1% DMSO containing test compounds at different concentrations was added to each well and incubated at 37 °C for another 48 h. The CCK-8 solution was added and incubated for another 1 h, and then, the absorbance was detected with a microplate reader at a wavelength of 450 nm. The IC50 values were calculated by nonlinear regression analysis using GraphPad Prism 8.0.2. All the experiments were repeated at least three times.

With `COc1cc(-n2ccc3ccc(-c4ccc(C)c(C#N)c4)cc32)cc(OC)c1OC` [3g, 2-methyl-5-(1-(3,4,5-trimethoxyphenyl)-1H-indol-6-yl)benzonitrile] the “cells in the G2/M phase” value (MCF-7 cells) was “marked accumulation” and the IC50 (B16-F10 cells) was 1690 ± 410 nM.
